# Patent EP0859607B1, “GUANIDINO PROTEASE INHIBITORS” (3-DIMENSIONAL PHARMACEUTICALS, INC., priority 1995, dated 1997)
# pKi: −log10 of the molar value. Counter-ions that a name gives are not always drawn.
# How the values were obtained:
# Format in all cases: biochemical
# human α-thrombin = target: T1, human α-thrombin (Homo sapiens, UniProt P00734); test: In vitro inhibition of purified enzymes, Ki determination: thrombin; details: Enzyme: Thrombin; substrate Suc-Ala-Ala-Pro-Arg-pNA 20 µM; pH 7.5, 37°C
# T1 construct: Purified human α-thrombin was diluted into assay buffer; purchased Enzyme Research Laboratories (South Bend, Indiana)
# Description: (§1) Reagents: All buffer salts were obtained from Sigma Chemical Company (St. Louis, MO), and were of the highest purity available. The enzyme substrates, N-benzoyl-Phe-Val-Arg-p-nitroanilide (Sigma B7632), N-benzoyl-Ile-Glu-Gly-Arg-p-nitroanilide (Sigma B2291), N-p-tosyl-Gly-Pro-Lys-p-nitroanilide (Sigma T6140), and N-succinyl-Ala-Ala-Pro-Phe-p-nitroanilide (Sigma S7388) were all obtained from Sigma.
# (§2) Human α-thrombin. human factor Xa, and human plasmin were obtained from Enzyme Research Laboratories (South Bend, Indiana). Bovine α-chymotrypsin and bovine trypsin were obtained from Sigma.
# Ki Determinations: All assays are based on the ability of the test compound to inhibit the enzyme-catalyzed hydrolysis of a peptide p-nitroanilide substrate. […] The final concentration for each of the substrates is listed below. In general, substrate concentrations are lower than the experimentally determined value for Km. Test compounds are prepared as a 0.16 mg/mL solution in DMSO. Dilutions are prepared in DMSO yielding 8 final concentrations encompassing a 200-fold concentration range. Enzyme solutions are prepared at the concentrations listed below in assay buffer.
# Data corresponding to less than 10% of the total substrate hydrolysis were used in the calculations. The ratio of the velocity (rate of the change in absorbance as a function of time) for a sample containing no inhibitor is divided by the velocity of a sample containing inhibitor, and is plotted as a function of inhibitor concentration. The data are fit to a linear regression, and the value of the slope of the line calculated. The inverse of the slope is the experimentally determined Ki value.
# Thrombin: Thrombin activity was assessed as the ability to hydrolyze the substrate Suc-Ala-Ala-Pro-Arg-pNA. […] Final DMSO concentration was 0.3%. […] Final reagent concentrations were: [thrombin] = 0.5 nM, [Suc-Ala-Ala-Pro-Arg-pNA] = 20 µM.
# human Factor Xa = target: T2, human Factor Xa (Homo sapiens, UniProt P00742); test: In vitro inhibition of purified enzymes, Ki determination: factor Xa; details: Enzyme: Factor Xa; substrate Bz-Ile-Glu-Gly-Arg-pNA 51 µM; pH 7.5, 37°C
# T2 construct: purchased Enzyme Research Laboratories (South Bend, Indiana)
# Description: as §1, §2
# (§3) Ki Determinations: All assays are based on the ability of the test compound to inhibit the enzyme-catalyzed hydrolysis of a peptide p-nitroanilide substrate. In a typical Ki determination, substrate is prepared in DMSO, and diluted into an assay buffer consisting of 50 mM HEPES, 200 mM NaCI, pH 7.5. The final concentration for each of the substrates is listed below. In general, substrate concentrations are lower than the experimentally determined value for Km. Test compounds are prepared as a 0.16 mg/mL solution in DMSO. Dilutions are prepared in DMSO yielding 8 final concentrations encompassing a 200-fold concentration range. […]
# Factor Xa: Factor Xa activity was assessed as the ability to hydrolyze the substrate Bz-Ile-Glu-Gly-Arg-pNA. […]
# human plasmin = target: T3, human plasmin (Homo sapiens, UniProt P00747); test: In vitro inhibition of purified enzymes, Ki determination: plasmin; details: Enzyme: Plasmin; substrate Tos-Gly-Pro-Lys-pNA 22 µM; pH 7.5, 37°C
# T3 construct: Purified human plasmin was diluted into assay buffer; purchased Enzyme Research Laboratories (South Bend, Indiana)
# Description: as §1, §2
# as §3, with “range. Enzyme solutions are prepared at the concentrations listed below in assay buffer.” for “range.”
# Plasmin: Plasmin activity was assessed as the ability to hydrolyze the substrate Tos-Gly-Pro-Lys-pNA. […]
# bovine trypsin = target: T4, bovine trypsin (Bos taurus, UniProt P00760); test: In vitro inhibition of purified enzymes, Ki determination: trypsin; details: Enzyme: Trypsin; substrate Bz-Phe-Val-Arg-pNA 14 µM; pH 7.5, 37°C
# T4 construct: Purified bovine trypsin was diluted into assay buffer; purchased Sigma
# T4 sequence (P00760 24-246): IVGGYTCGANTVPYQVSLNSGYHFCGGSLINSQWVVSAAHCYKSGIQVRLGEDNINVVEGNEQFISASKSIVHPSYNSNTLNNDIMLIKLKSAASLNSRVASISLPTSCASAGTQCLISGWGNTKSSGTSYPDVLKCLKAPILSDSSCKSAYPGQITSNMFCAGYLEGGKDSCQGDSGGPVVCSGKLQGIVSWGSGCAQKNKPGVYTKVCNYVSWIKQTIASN
# Description: as §1, §2
# as §3, with “range. Enzyme solutions are prepared at the concentrations listed below in assay buffer.” for “range.”
# Trypsin: Trypsin activity was assessed as the ability to hydrolyze the substrate Bz-Phe-Val-Arg-pNA. […]
# bovine α-chymotrypsin = target: T5, bovine α-chymotrypsin (Bos taurus, UniProt P00766); test: In vitro inhibition of purified enzymes, Ki determination: chymotrypsin; details: Enzyme: Chymotrypsin; substrate Suc-Ala-Ala-Pro-Phe-pNA 14 µM; pH 7.5, 37°C
# T5 construct: Purified bovine α-chymotrypsin was diluted into assay buffer; purchased Sigma
# Description: as §1, §2, §3
# Chymotrypsin: Chymotrypsin activity was assessed as the ability to hydrolyze the substrate Suc-Ala-Ala-Pro-Phe-pNA. […]
# T2 sequence (P00742 235-488 limits assumed): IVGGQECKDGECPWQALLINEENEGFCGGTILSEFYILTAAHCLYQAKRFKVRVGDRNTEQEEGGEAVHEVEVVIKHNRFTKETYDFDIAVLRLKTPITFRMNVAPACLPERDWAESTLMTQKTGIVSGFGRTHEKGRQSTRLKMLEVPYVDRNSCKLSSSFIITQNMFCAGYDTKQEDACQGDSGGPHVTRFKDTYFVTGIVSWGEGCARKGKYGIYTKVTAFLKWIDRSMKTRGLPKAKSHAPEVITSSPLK
# T2 sequence (P00742 41-179 partner limits assumed): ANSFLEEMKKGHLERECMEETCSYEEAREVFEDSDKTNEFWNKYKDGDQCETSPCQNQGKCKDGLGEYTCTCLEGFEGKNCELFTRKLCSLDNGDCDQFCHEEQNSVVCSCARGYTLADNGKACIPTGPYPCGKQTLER
# T3 sequence (P00747 581-810 limits assumed): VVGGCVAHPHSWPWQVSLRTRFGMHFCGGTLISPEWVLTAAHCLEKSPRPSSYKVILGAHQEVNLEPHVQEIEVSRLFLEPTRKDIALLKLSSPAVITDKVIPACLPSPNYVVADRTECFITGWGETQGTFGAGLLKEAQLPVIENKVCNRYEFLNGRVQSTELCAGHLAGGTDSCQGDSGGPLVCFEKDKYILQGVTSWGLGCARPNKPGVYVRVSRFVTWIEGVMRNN
# T3 sequence (P00747 97-580 partner limits assumed): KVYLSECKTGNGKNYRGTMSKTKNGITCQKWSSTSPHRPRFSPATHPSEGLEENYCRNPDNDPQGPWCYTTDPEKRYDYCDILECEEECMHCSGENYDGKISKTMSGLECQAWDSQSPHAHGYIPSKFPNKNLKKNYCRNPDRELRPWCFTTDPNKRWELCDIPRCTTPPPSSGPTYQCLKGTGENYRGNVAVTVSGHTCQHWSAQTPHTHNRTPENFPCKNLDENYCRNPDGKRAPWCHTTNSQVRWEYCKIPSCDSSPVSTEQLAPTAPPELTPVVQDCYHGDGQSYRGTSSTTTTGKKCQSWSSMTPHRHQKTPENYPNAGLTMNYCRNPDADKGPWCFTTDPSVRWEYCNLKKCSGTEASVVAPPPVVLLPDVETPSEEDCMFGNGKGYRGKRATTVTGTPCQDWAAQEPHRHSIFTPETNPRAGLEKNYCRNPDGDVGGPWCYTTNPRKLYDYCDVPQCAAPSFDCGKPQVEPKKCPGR
Molecule,pKi (human α-thrombin),other results
"2,3-Dichlorobenzenesulfonic acid 3-[[1-(aminoiminomethyl)piperidin-4-yl]methoxy]-5-methylphenyl ester hydrochloride [Example 42]",7.68,–
2-Chlorobenzenesulfonic acid 3-[2-[1-(aminoiminomethyl)piperazin-4-yl]ethoxy]-5-methylphenyl ester diacetic acid salt [Example 6],6.48,–
2-Chlorobenzenesulfonic acid 3-[[1-(aminoiminomethyl)piperidin-3-yl]methoxy]-5-methylphenyl ester [Example 4],–,pKi (human Factor Xa): 4.24
2-Chlorobenzenesulfonic acid 3-[[1-(aminoiminomethyl)piperidin-4-yl]methoxy]-5-chlorophenyl ester hydrochloride [Example 24],7.40,–
2-Chlorobenzenesulfonic acid 3-[[1-(aminoiminomethyl)piperidin-4-yl]methoxy]-5-hydroxymethylphenylester [Example 44],5.16,–
2-Chlorobenzenesulfonic acid 3-[[1-(aminoiminomethyl)piperidin-4-yl]methoxy]phenyl ester [Example 1],6.60,–
"2-Chlorobenzenesulfonic acid, 3-[[1-(aminoiminomethyl)piperidin-4-yl]methoxy]-5-methylphenyl ester [Example 3]",8.10,–
2-Trifluoromethylbenzenesulfonic acid 3-[[1-(aminoiminomethyl)piperidin-4-yl]methoxy]-5-methylphenyl ester acetic acid salt [Example 38],7.72,–
3-Amino-2-chlorobenzenesulfonic acid 3-[[1-(aminoiminomethyl)piperidin-4-yl]methoxy]-5-methylphenyl ester dihydrochloride [Example 33],7.47,–
"N=C(N)N1CCN(CCOc2cccc(OS(=O)(=O)c3ccccc3Cl)c2)CC1 [Example 5, 2-Chlorobenzenesulfonic acid 3-[2-[1-(aminoiminomelhyl)piperazin-4-yl]ethoxy]phenyl ester diacetic acid salt]",–,pKi (human plasmin): 4.53
"N=C(N)N1CCC(CNc2cccc(N(Cc3ccccc3)S(=O)(=O)c3ccccc3)c2)CC1 [Example 11, N-benzyl-N-[[3-(1-aminoiminomethyl)-piperidin-4-ylmethylamino]phenyl]benzenesulfonamide]",–,pKi (bovine trypsin): 5.28
"N=C(N)N1CCC(COc2cc(OS(=O)(=O)c3ccccc3Cl)ccc2Cc2ccccc2)CC1 [Example 12, 2-Chlorobenzenesulfonic acid 3-[[1-aminoiminomethyl)piperidin-4-yl]methoxy]-4-benzylphenyl ester acetic acid salt]",–,pKi (bovine α-chymotrypsin): 4.90
Benzenesulfonic acid 3-[[1-(aminoiminomethyl)piperidin-4-yl]methoxy]-5-methylphenyl ester acetic acid salt [Example 17],7.44,–
